Where a SMILES comes first, the peptide text is derived from it.
Legend:
[1] = Saturated aspartame solutions: solubility with hydrochloric acid; type: physicochemical; conditions: for ASPARTAME SOLUBILITY (%): saturated solution
Text: The following saturated aspartame solutions were made using aspartame for a model for an amphoteric pharmaceutical agent. […] These solutions are suitable for filling into soft gelatin capsules.

[2] = Saturated aspartame solutions: solubility with potassium hydroxide; type: physicochemical; conditions: for ASPARTAME SOLUBILITY (%): saturated solution
Experimental: The following saturated aspartame solutions were prepared, using aspartame as a model of an amphoteric pharmaceutical agent. These solutions contain the indicated amount of aspartame, the indicated solvent and the indicated amount of potassium hydroxide. […] The solutions were suitable for filling into soft gelatin capsules.

[3] = Saturated ibuprofen solutions: solubility (weight percent) with potassium hydroxide

COC(=O)[C@H](Cc1ccccc1)NC(=O)[C@@H](N)CC(=O)O [aspartame] (H-Asp-Phe-OMe)
enhanced solubility (in words) ([1]; hydrochloric acid, each solvent): enhanced solubility was noted | ASPARTAME SOLUBILITY (%) ([1]; solvent LABRASOL, mole equivalent acid 0): 0.30% | ASPARTAME SOLUBILITY (%) ([1]; solvent LABRASOL, mole equivalent acid (HCl) 50 (so in the source)): 0.50% | ASPARTAME SOLUBILITY (%) ([1]; solvent PLURONIC L62, mole equivalent acid 0): 0.045% | ASPARTAME SOLUBILITY (%) ([1]; solvent PLURONIC L62, mole equivalent acid (HCl) 50 (so in the source)): 0.095% | ASPARTAME SOLUBILITY (%) ([1]; solvent TRANSCUTOL, mole equivalent acid 0): 0.43% | ASPARTAME SOLUBILITY (%) ([1]; solvent TRANSCUTOL, mole equivalent acid (HCl) 50 (so in the source)): 0.91% | enhanced solubility (in words) ([2]; potassium hydroxide, except for Pluronic L62): showed enhanced solubility in the presence of the hydroxide species | ASPARTAME SOLUBILITY (%) ([2]; solvent LABRASOL, mole equivalent hydroxide 0): 0.30% | ASPARTAME SOLUBILITY (%) ([2]; solvent LABRASOL, mole equivalent hydroxide (KOH) 0.50): 0.60% | ASPARTAME SOLUBILITY (%) ([2]; solvent PLURONIC L62, mole equivalent hydroxide 0): 0.045% | ASPARTAME SOLUBILITY (%) ([2]; solvent PLURONIC L62, mole equivalent hydroxide (KOH) 0.50): 0.045% | ASPARTAME SOLUBILITY (%) ([2]; solvent TRANSCUTOL, mole equivalent hydroxide 0): 0.43% | ASPARTAME SOLUBILITY (%) ([2]; solvent TRANSCUTOL, mole equivalent hydroxide (KOH) 0.50): 0.68%

CC(C)Cc1ccc(C(C)C(=O)O)cc1 (stereo not shown) [ibuprofen]
IBUPROFEN SOLUBILITY (%) ([3]; solvent LABRASOL, mole equivalent hydroxide 0, saturated solution): 25.0% | IBUPROFEN SOLUBILITY (%) ([3]; solvent LABRASOL, mole equivalent hydroxide (KOH) 0.25, saturated solution): 40.0% | IBUPROFEN SOLUBILITY (%) ([3]; solvent LABRASOL, mole equivalent hydroxide (KOH) 0.5, saturated solution): 45.0% | IBUPROFEN SOLUBILITY (%) ([3]; solvent LABRASOL, mole equivalent hydroxide (KOH) 0.75, saturated solution): 42.5% | IBUPROFEN SOLUBILITY (%) ([3]; solvent LABRASOL, mole equivalent hydroxide (KOH) 1.0, saturated solution): 40.0% | IBUPROFEN SOLUBILITY (%) ([3]; solvent PLUROL OLEIQUE, mole equivalent hydroxide 0, saturated solution): 15.0% | IBUPROFEN SOLUBILITY (%) ([3]; solvent PLUROL OLEIQUE, mole equivalent hydroxide (KOH) 0.5, saturated solution): 30.0% | IBUPROFEN SOLUBILITY (%) ([3]; solvent PLURONIC L62, mole equivalent hydroxide 0, saturated solution): 10.0% | IBUPROFEN SOLUBILITY (%) ([3]; solvent PLURONIC L62, mole equivalent hydroxide (KOH) 0.25, saturated solution): 15.0% | IBUPROFEN SOLUBILITY (%) ([3]; solvent PLURONIC L62, mole equivalent hydroxide (KOH) 0.5, saturated solution): 20.0% | IBUPROFEN SOLUBILITY (%) ([3]; solvent PLURONIC L62, mole equivalent hydroxide (KOH) 0.75, saturated solution): 27.5% | IBUPROFEN SOLUBILITY (%) ([3]; solvent PLURONIC L62, mole equivalent hydroxide (KOH) 1.0, saturated solution): 30.0% | IBUPROFEN SOLUBILITY (%) ([3]; solvent TRANSCUTOL, mole equivalent hydroxide 0, saturated solution): 42.5% | IBUPROFEN SOLUBILITY (%) ([3]; solvent TRANSCUTOL, mole equivalent hydroxide (KOH) 0.25, saturated solution): 55.0% | IBUPROFEN SOLUBILITY (%) ([3]; solvent TRANSCUTOL, mole equivalent hydroxide (KOH) 0.5, saturated solution): 60.0% | IBUPROFEN SOLUBILITY (%) ([3]; solvent TRANSCUTOL, mole equivalent hydroxide (KOH) 0.75, saturated solution): 52.5% | IBUPROFEN SOLUBILITY (%) ([3]; solvent TRANSCUTOL, mole equivalent hydroxide (KOH) 1.0, saturated solution): 52.5%

Reference: US5376688A, “Enhanced solubility pharmaceutical solutions” (R. P. Scherer Corporation, priority 1992, dated 1994)
